# In article PMC8847695 (Frontiers in Chemistry, 2022):
# Tests used:
# Format in all cases: binding
# [1] = target: T1, IDO1 (1-435) (Homo sapiens, UniProt P14902); assay: STD-NMR fragment screening, IDO1; settings: for IDO1 (STD-NMR hit flag): 1 = hit, 0 = no hit
# T1 construct: His-tag of pET15b with TEV site (thrombin site replaced) (cleaved yes); made in house; host or cells: E. coli Rosetta 2 (DE3) pLysS
# Description: (§1) All fragments were stored at −20°C as solids in argon flushed glass bottles. For NMR screening, fragments were weighed and dissolved in DMSO-d6 to a stock concentration of 300 mM. Mother plates were prepared with a 100 mM concentration. From these plates, daughter plates were prepared with the fragments mixed in the plates to a concentration of 50 mM for each fragment. Daughter plates were opened a maximum of eight times. The plates were argon flushed and sealed with a HT121TS (HTA) and Foil Heat Seal (Biozym).
# (§2) For long time measurements, like the protein ^1H NMR spectrum, the buffer exchange was performed twice to reduce residual buffer peaks. All experiments were performed on a Bruker Avance III HDX 700 instrument, equipped with a 5 mm Prodigy TCI cryo-probehead. For every protein, a standard ^1H NMR experiment with 1 k scans and water suppression through presaturation was performed. […] The on-resonance frequency, which was determined from the ^1H NMR spectra of the protein, was between 0.5 and 0.6 ppm; 40 ppm was used as the off-resonance frequency. For an interleaved acquisition of the on- and off-resonance, a pseudo-2D scheme was applied. The saturation was done by Gaussian pulses with a length of 50 ms and 60 dB of attenuation, with an interpulse delay of 1 ms leading to an excitation bandwidth of about 42 Hz. The screening was done with 16 scans of on- and off-resonance scans each, with a 3 s saturation time. The samples contained final concentrations of 20 µM protein, 10% (^V/V) DMSO-d6, and 1 mM of each of the two fragments. A ^1H-NMR experiment was performed for each compound to act as a reference spectrum in the STD experiments. All NMR experiments were carried out at 25°C.
# (§3) Fifteen of these compounds contain the same halogen twice. No compound bears mixtures of different halogen atoms. Four proteins (AAK1, CAMK1G, IDO1, and DOT1L) were screened against this HEFLib using STD-NMR. A fragment was considered a hit if the peak intensity in the difference spectrum was three times higher than the local background noise. […] Chemical compatibility and peak complementarity were assured for these mixtures. Samples containing more than two fragments were avoided to minimize the possible target competition and to decrease the risk of fragment interactions. […] The ^1H reference NMR spectrum of the mixture is shown in red for comparison. […] As fragment mixtures can lead to competitive effects between their fragments, it is not advised to use the quantification of peak mixtures for hit ranking.
# [2] = target: T2, CAMK1G (1-320) (Homo sapiens, UniProt Q96NX5); assay: STD-NMR fragment screening, CAMK1G; settings: for CAMK1G (STD-NMR hit flag): 1 = hit, 0 = no hit
# T2 construct: made in house; host or cells: E. coli BL21 (DE3) pLysS
# T2 sequence (Q96NX5 1-320): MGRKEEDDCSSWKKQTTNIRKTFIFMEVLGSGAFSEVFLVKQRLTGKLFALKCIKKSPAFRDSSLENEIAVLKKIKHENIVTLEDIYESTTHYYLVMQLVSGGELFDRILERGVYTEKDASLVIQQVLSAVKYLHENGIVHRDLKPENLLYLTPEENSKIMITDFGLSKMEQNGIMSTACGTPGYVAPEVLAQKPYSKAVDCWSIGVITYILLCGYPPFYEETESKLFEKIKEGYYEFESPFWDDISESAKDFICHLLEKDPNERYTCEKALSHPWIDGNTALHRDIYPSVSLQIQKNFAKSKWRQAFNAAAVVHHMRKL
# Description: as §1, §2, §3
# [3] = target: T3, DOT1L (1-416) (Homo sapiens, UniProt Q8TEK3); assay: STD-NMR fragment screening, DOT1L; settings: for DOT1L (STD-NMR hit flag): 1 = hit, 0 = no hit
# T3 construct: made in house; host or cells: E. coli BL21 (DE3) pLysS
# T3 sequence (Q8TEK3 1-416): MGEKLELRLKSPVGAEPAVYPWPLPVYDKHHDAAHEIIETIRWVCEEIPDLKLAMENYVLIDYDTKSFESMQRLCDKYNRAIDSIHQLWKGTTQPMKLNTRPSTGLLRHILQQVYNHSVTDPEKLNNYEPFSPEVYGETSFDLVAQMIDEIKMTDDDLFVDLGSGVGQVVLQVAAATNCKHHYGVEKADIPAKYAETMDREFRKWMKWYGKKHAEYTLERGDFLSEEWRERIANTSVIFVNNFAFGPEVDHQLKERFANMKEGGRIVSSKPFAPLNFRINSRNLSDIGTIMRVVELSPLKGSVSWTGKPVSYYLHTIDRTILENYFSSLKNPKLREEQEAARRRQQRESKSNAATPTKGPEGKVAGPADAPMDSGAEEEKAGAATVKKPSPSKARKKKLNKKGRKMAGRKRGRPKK
# Description: as §1, §2, §3
# [4] = target: AAK1 (121-471) (Homo sapiens, UniProt Q2M2I8); assay: STD-NMR fragment screening, AAK1; settings: for STD-NMR hit: 1 mM fragment, 20 µM protein, hit if peak in difference spectrum three times higher than local noise; for AAK1 (STD-NMR hit flag): 1 = hit, 0 = no hit
# Sequence of AAK1 (121-471) (Q2M2I8 46-315 limits assumed): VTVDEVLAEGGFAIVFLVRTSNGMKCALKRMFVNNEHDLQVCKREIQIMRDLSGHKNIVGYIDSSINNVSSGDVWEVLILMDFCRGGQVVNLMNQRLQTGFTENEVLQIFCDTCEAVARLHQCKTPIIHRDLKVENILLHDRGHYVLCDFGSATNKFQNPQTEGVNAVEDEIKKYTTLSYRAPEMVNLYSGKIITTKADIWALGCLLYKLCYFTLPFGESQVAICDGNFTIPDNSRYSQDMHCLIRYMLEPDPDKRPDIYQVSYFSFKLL
# Description: as §1, §2, §3
# [5] = 1 mM fragment, 20 µM protein, hit if peak in difference spectrum three times higher than local noise
# T1 sequence (P14902 whole entry, the tested form may be a part): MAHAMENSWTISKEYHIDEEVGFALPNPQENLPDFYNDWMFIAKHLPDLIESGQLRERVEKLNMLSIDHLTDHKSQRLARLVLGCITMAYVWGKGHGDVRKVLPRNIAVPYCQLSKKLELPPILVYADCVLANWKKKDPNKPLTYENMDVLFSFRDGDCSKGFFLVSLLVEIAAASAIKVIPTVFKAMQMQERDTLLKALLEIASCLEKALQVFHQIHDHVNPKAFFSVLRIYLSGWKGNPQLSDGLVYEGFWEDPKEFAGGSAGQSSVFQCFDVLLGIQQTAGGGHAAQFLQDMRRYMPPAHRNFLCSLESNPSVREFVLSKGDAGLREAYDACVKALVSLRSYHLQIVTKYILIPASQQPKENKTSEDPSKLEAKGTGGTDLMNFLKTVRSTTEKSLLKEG
Structure (SMILES),"STD-NMR hit [1, 5]","STD-NMR hit [2, 5]","STD-NMR hit [3, 5]",STD-NMR hit [4],IDO1 (STD-NMR hit flag) [1],CAMK1G (STD-NMR hit flag) [2],DOT1L (STD-NMR hit flag) [3],AAK1 (STD-NMR hit flag) [4]
Cn1c(Cl)c(C#N)c(=O)n(C)c1=O [Fragment 1234],pan-target hit,pan-target hit,pan-target hit,pan-target hit,–,–,–,–
Oc1ccc(Cl)cc1 [Fragment 4485],–,–,–,none of the signals of fragment 4485 (Signal 4 and 5) are distinguishable from the baseline noise,–,–,–,–
NC(CCO)c1ccc(Cl)cc1Cl (stereo not drawn) [Fragment B02289594],–,–,–,–,0,0,0,0
Clc1ncnc2cc[nH]c12 [Fragment B02289595],–,–,–,–,0,1,0,1
Cc1noc(C)c1Br [Fragment B02289596],–,–,–,–,0,1,0,0
O=C(O)c1cccc(Cl)n1 [Fragment B02289597],–,–,–,–,0,0,0,0
OB(O)c1ccc(Cl)nc1F [Fragment B02289599],–,–,–,–,0,0,0,0
Nc1ncccc1I [Fragment B02289600],–,–,–,–,0,1,0,0
O=[N+]([O-])c1cnc(Br)[nH]1 [Fragment B02289601],–,–,–,–,1,0,0,1
O=C(O)c1ccc(Cl)cn1 [Fragment B02289602],–,–,–,–,0,0,0,0
Nc1cccc(Br)c1O [Fragment B02289603],–,–,–,–,0,0,0,0
O=C(O)c1cncc(Cl)c1 [Fragment B02289604],–,–,–,–,0,0,0,1
Nc1ccc2[nH]nc(Br)c2c1 [Fragment B02289605],–,–,–,–,0,1,0,0
OCc1ccc(Cl)nc1 [Fragment B02289606],–,–,–,–,0,0,0,0
Nc1cnccc1I [Fragment B02289607],–,–,–,–,0,0,0,1
COc1nc(N)ncc1I [Fragment B02289608],–,–,–,–,0,1,0,1
NCc1cc(Br)no1 [Fragment B02289609],–,–,–,–,0,0,0,0
Brc1cnn2cccnc12 [Fragment B02289610],–,–,–,–,0,1,0,1
O=C(O)c1cncc(Cl)n1 [Fragment B02289611],–,–,–,–,0,0,0,0
Nc1ncc(Br)cc1C(=O)O [Fragment B02289612],–,–,–,–,1,0,0,0
CCOC(=O)c1coc(Cl)n1 [Fragment B02289613],–,–,–,–,0,0,0,0
